For five compounds, EC50, IC50 and CC50 results are on record in ChEMBL document CHEMBL1201862, “PubChem BioAssay data set” (2004).

The source made the active and inactive calls. Cut-off read from the data, not from the text of the source, for most assays here: actives have a measured IC50 and inactives only a lower limit.

The target in test [1] is T1, Short transient receptor potential channel 4 (Mus musculus, UniProt Q9QUQ5).
T1 sequence (Q9QUQ5 whole entry): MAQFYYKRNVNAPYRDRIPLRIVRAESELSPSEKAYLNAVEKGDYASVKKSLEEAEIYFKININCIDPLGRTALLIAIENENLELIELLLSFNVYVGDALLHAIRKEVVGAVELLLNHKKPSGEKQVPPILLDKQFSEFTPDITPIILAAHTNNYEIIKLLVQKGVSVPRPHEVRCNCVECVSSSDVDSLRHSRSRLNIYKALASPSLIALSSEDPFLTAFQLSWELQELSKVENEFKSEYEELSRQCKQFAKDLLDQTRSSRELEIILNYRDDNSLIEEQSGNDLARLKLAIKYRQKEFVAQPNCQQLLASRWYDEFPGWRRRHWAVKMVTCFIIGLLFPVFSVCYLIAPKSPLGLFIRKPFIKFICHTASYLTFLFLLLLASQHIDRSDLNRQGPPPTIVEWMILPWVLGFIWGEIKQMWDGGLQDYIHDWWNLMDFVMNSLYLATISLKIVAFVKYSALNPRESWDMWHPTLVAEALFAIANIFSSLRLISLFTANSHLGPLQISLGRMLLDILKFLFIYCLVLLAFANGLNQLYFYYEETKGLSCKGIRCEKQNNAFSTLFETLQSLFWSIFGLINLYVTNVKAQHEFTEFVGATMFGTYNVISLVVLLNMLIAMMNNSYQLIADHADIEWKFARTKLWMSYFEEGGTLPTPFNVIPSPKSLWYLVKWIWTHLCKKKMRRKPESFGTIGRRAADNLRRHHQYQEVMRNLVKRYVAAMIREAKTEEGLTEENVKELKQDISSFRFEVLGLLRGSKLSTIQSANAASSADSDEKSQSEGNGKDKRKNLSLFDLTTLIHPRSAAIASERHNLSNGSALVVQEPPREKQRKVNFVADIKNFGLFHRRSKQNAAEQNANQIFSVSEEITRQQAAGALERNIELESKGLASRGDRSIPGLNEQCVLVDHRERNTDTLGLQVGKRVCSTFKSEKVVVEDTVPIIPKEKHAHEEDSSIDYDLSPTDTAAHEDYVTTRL
Description: TRPC4 positive allosteric modulators, dose response, cell-based, HEK293 TRPC4/mu-opioid, Fluo-4 calcium, EC20 DAMGO (AID 434941).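 Note: HEK293 cells coexpressing TRPC4 and mu opioid receptor stimulated by EC20 DAMGO.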 The class given is functional.

The next test has as its target Phosphomannomutase 2 (Homo sapiens, UniProt O15305). Put plainly: Counter screen SAR assay for PMM2 inhibitors via a fluorescence intensity assay. [Related pubchem assays (depositor defined):AID1545, AID1574]. In general terms: Counterscreens check selectivity or assay interference.
For another test, the system named is Vero. Description: cells. The class given is functional. To be noted: Chlorocebus sabaeus.
Test [2] deals with Eukaryotic translation initiation factor 4E (Mus musculus, UniProt P63073). Put plainly: eIF4E–eIF4G protein interaction inhibitors, dose response, biochemical, TR-FRET (AID 855).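 Note: potency for disrupting eIF4E binding to eIF4GI seen as loss of FRET.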 The class given is functional.
Eukaryotic translation initiation factor 4E, sequence (P63073 whole entry): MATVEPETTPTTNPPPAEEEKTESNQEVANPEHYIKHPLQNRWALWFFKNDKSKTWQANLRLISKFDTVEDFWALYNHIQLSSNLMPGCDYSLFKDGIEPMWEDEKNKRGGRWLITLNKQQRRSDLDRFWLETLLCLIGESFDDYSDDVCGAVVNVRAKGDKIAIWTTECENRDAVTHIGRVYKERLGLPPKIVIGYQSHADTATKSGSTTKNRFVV
In test [3] the target is Glucose-6-phosphate 1-dehydrogenase (Homo sapiens, UniProt P11413). Put plainly: human G6PD enzyme inhibitors, dose response, selectivity assay for P. falciparum G6PD inhibitor project, biochemical, fluorescence (AID 504792). The class given is functional.
Glucose-6-phosphate 1-dehydrogenase, sequence (P11413 whole entry): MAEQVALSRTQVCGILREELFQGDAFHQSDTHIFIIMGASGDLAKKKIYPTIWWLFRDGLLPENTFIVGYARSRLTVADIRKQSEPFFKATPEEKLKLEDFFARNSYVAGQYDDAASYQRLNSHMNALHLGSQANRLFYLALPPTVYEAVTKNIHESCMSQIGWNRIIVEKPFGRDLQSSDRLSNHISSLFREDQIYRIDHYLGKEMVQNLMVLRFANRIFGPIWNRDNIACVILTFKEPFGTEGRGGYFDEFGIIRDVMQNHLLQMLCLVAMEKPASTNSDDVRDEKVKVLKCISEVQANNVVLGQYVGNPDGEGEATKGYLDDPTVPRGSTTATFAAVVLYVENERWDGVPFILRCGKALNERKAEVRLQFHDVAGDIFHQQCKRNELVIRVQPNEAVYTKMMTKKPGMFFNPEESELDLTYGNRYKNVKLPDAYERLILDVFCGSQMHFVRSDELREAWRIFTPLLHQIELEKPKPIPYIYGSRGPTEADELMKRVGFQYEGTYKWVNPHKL
Test [4] addresses T2, Mannose-6-phosphate isomerase (Homo sapiens, UniProt P34949).
T2 sequence (P34949 whole entry): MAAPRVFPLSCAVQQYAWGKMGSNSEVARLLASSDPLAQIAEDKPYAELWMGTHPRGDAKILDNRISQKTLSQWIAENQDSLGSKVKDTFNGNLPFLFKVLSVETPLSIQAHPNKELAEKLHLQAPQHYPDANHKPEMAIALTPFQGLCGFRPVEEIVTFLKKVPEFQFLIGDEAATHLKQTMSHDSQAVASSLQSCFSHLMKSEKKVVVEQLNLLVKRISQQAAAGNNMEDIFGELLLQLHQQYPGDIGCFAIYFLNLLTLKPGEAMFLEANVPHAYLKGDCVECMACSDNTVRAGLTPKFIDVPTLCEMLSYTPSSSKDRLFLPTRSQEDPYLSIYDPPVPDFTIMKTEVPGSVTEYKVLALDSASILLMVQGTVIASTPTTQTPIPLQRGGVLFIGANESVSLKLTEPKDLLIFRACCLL
Description: human PMI inhibitors, high substrate, primary screen, biochemical, fluorescence intensity, high mannose 6-phosphate (AID 1220).

Another test concerns the target Large T antigen (Simian virus 40, UniProt P03070). The class given is functional, Betapolyomavirus macacae.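 Note: Confirmatory-stage PubChem screen for compounds that inhibit SV40 T antigen.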
The target of test [5] is T2, Mannose-6-phosphate isomerase. Put plainly: PMI enzyme inhibitors, confirmation, biochemical, fluorescence intensity (AID 1535).
The target in test [6] is T3, Eukaryotic translation initiation factor 4H (Homo sapiens, UniProt Q15056). Put plainly: eIF4H inhibition in translation initiation, SAR follow-up (AID 435011). The class given is functional.
For test [7], the target named is T3, Eukaryotic translation initiation factor 4H. Description: human eIF4H binding inhibitors, primary screen, translation initiation inhibitor project, biochemical, uHTS, fluorescence polarization (AID 2012). In general terms: Fluorescence polarisation rises when a labelled molecule tumbles more slowly, as on binding a larger partner.
Test [8] addresses T4, Polyadenylate-binding protein 1 (Homo sapiens, UniProt P11940). Description: PABP poly(A) RNA binding inhibitors, primary screen, biochemical, fluorescence polarization, uHTS (AID 2014).
Test [9] deals with T4, Polyadenylate-binding protein 1. Put plainly: PABP inhibition in translation initiation, SAR follow-up (AID 435018). The class given is functional.
Test [10] has as its target G-protein coupled receptor 55 (Homo sapiens, UniProt Q9Y2T6). Put plainly: GPR55 agonists via beta-arrestin recruitment, primary screen, imaging, U2OS cells, beta-arrestin-GFP redistribution (AID 1961). The class given is functional.
Test [11] concerns HEK293. Put plainly: cells. The class given is functional, cell-based. To be noted: Homo sapiens.
Test [12] deals with HEK293. Put plainly: cells. The following applies: Homo sapiens.
Test [13] addresses T5, Nucleotide-binding oligomerization domain-containing protein 2 (Homo sapiens, UniProt Q9HC29). Put plainly: PubChem AID 2334. The class given is functional.
Test [14] has as its system HEK293. Put plainly: cells. The class given is functional, cell-based. To be noted: Homo sapiens. The source holds these as a separate data set.
Test [15] concerns HEK293. Put plainly: cells. The class given is functional, cell-based. The following applies: Homo sapiens. The source holds these as a separate data set.
Test [16] has as its system HEK293. Put plainly: NOD2 signaling inhibitors in MDP-stimulated cells, cell-based, uHTS, luminescence (AID 2001). The following applies: Homo sapiens. The class given is functional.
Test [17] has as its target T6, Calpain-2 catalytic subunit (Sus scrofa, UniProt P43367).
T6 sequence (P43367 whole entry): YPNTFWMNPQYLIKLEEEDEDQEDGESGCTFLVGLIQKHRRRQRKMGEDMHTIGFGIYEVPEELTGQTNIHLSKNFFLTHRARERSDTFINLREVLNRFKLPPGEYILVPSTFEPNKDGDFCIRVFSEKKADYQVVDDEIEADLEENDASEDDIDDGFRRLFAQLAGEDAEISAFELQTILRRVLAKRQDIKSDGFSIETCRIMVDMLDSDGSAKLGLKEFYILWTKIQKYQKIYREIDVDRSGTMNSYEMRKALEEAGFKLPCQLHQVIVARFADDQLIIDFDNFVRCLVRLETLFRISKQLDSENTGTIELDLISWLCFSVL
Description: pig calpain II inhibitor potency, dose response, biochemical, fluorogenic peptide substrate (AID 1420). The class given is functional.

The target in a further test is Tumor necrosis factor (Homo sapiens, UniProt P01375). Put plainly: TNFa-triggered NF-kB activation inhibitors, SAR follow-up, cell-based, revised (AID 2337). The class given is functional.
Tumor necrosis factor, sequence (P01375 whole entry, the tested form may be a part): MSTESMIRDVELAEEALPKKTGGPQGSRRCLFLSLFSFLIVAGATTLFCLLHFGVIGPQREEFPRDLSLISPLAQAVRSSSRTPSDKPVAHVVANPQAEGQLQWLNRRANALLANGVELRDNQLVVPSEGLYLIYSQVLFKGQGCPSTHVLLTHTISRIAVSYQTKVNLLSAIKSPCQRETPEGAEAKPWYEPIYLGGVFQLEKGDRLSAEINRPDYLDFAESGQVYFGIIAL
Test [18] concerns the target Nucleotide-binding oligomerization domain-containing protein 1 (Homo sapiens, UniProt Q9Y239). Put plainly: NOD1 signaling inhibitors, SAR follow-up, revised (AID 2333). The class given is functional.
The subject of test [19] is HEK293. Description: NOD1 signaling inhibitors, primary screen, cell-based, luminescence, uHTS (AID 1578). The class given is functional. The following applies: Homo sapiens.
Test [20] concerns the target T5, Nucleotide-binding oligomerization domain-containing protein 2. Put plainly: NOD2 signaling inhibitors, cell-based, luminescence, uHTS, HEK293 (AID 1566). The class given is functional.

T4 sequence (P11940 whole entry): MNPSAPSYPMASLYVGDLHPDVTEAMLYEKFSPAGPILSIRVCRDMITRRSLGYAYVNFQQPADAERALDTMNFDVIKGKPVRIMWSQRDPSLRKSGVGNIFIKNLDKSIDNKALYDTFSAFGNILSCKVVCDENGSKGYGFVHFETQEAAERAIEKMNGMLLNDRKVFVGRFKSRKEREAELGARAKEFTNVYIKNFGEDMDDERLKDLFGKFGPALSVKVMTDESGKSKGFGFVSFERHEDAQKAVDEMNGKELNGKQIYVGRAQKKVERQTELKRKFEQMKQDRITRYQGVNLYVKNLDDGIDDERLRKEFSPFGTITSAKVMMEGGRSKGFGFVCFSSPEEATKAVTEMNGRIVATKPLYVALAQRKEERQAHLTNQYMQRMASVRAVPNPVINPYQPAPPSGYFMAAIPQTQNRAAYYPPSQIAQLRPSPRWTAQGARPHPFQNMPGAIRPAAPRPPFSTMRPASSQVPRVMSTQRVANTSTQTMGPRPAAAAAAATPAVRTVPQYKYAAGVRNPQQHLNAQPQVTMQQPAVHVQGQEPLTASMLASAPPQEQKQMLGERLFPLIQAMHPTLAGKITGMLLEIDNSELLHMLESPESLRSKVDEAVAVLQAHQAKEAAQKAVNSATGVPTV
T5 sequence (Q9HC29 whole entry, the tested form may be a part): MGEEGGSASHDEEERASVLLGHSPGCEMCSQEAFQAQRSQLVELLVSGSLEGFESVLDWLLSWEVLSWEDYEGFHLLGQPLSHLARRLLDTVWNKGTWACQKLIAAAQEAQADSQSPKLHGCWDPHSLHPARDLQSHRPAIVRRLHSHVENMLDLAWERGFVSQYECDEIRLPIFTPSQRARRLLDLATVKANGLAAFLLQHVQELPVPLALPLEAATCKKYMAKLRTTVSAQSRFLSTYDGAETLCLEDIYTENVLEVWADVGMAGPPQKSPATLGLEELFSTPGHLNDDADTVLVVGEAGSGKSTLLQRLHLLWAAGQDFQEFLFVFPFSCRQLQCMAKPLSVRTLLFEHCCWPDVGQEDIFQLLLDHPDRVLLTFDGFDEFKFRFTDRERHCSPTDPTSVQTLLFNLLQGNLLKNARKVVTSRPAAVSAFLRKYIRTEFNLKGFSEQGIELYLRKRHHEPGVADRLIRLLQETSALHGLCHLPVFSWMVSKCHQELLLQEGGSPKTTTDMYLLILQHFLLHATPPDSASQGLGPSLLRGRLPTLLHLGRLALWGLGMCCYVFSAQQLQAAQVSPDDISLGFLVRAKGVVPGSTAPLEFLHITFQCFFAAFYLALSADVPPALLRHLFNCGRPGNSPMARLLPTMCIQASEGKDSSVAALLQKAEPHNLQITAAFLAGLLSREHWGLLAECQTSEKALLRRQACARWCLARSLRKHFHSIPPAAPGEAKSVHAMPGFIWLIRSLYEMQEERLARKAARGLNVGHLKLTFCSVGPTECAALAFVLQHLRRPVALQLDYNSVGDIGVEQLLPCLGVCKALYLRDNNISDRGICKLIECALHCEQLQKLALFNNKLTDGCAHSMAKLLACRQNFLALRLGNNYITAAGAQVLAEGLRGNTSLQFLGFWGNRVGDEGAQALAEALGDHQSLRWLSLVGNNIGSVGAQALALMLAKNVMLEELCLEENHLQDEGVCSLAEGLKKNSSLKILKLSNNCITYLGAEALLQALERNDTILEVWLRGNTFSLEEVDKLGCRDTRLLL
Nucleotide-binding oligomerization domain-containing protein 1, sequence (Q9Y239 whole entry, the tested form may be a part): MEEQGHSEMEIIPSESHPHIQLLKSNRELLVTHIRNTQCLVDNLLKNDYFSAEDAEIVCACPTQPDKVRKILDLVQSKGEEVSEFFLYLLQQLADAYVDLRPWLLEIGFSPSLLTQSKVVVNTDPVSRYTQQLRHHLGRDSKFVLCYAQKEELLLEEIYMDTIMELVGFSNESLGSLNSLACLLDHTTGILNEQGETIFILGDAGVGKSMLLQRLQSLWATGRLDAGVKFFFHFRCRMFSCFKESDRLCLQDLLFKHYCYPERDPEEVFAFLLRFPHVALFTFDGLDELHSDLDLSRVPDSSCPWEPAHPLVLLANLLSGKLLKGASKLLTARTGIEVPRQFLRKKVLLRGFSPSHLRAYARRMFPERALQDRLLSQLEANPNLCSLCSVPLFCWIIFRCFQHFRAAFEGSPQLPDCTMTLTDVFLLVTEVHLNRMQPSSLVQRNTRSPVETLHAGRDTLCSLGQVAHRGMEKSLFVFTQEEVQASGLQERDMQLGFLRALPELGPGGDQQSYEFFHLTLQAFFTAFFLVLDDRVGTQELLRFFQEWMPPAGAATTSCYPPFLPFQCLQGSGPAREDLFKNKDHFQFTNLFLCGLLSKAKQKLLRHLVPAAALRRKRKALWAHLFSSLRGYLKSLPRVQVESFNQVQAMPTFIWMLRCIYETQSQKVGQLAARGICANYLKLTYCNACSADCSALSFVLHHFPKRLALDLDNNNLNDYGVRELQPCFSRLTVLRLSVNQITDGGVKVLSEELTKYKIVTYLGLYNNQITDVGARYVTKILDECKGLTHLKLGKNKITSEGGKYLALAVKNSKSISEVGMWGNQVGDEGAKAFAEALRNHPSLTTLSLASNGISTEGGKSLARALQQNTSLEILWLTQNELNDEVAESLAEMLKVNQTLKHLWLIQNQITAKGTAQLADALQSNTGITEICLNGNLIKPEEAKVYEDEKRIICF
G-protein coupled receptor 55, sequence (Q9Y2T6 whole entry): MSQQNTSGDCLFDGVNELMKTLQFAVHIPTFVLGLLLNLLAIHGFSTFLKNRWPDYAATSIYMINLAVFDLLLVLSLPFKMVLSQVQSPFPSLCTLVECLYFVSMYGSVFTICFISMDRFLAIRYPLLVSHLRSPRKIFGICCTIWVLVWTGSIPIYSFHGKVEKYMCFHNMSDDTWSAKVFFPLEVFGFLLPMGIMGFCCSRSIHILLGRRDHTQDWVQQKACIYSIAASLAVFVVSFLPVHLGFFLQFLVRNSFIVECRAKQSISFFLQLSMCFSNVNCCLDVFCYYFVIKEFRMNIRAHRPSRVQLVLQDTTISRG
Large T antigen, sequence (P03070 whole entry): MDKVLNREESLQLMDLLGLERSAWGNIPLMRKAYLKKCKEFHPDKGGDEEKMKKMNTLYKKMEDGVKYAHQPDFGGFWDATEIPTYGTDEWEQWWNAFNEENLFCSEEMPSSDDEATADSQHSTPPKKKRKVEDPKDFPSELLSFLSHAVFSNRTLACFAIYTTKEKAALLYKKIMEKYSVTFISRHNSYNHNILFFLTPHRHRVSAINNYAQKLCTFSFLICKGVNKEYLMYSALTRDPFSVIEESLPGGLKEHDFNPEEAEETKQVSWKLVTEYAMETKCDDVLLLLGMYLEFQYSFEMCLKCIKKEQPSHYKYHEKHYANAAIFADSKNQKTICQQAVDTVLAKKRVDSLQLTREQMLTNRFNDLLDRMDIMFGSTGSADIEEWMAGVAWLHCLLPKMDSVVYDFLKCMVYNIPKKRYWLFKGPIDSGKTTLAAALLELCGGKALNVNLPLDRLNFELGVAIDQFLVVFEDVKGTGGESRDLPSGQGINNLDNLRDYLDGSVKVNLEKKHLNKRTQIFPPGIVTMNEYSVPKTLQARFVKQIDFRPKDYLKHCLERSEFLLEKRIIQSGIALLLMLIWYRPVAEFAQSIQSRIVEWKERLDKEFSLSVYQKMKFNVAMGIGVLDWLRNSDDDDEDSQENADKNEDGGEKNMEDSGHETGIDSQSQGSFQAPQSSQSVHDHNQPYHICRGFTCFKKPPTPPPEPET

What is called EC50 is the midpoint of the concentration-response curve. Turning to `CCSC1=N/C(=C\c2ccc(OC)cc2)C(=O)N1`, the EC50 in test [1] is 3.35 µM (active).

By IC50 is commonly meant the concentration that gives 50% inhibition. One may read the CC50 as the concentration at which the toxic effect on the cells reaches its halfway point. For `O=c1c2ccccc2sn1-c1nccs1`, the IC50 was > 100 µM (inactive) on Phosphomannomutase 2; 13.5 µM (active) in [2]; 11.3 µM (active) in [3]; 42.5 µM (active) in test [4]; 12.9 µM (active) at Large T antigen; 2.65 µM (active) in test [5]. Further, the 50% cytotoxic concentration (CC50) in the test with Vero was > 25 µM (active).

`O=C(Nc1cccc2ncccc12)c1ccc(Cl)cc1`: the IC50 in test [6] was 6.11 µM (active); in test [7] it was > 100 µM (inactive); in [8], 9.09 µM (active); in test [9], 2.79 µM (active).

`Cc1c(C(=O)N(C)C2CCCCC2)sc2ncnc(N3CCN(c4ccccc4)CC3)c12`: in test [10], the EC50 is 5.84 µM (active).

Consider `CCc1cc2c3c(c1)C(C)CC(C)(C)N3C(=O)/C2=C1\SC(=O)NC1=O` (centres undefined), for which the IC50 in the test with HEK293 [11] is > 20 µM (inactive); with HEK293 [12], > 20 µM (inactive); in [13], 5.9 µM (active); in the test with HEK293 [14], > 20 µM (inactive); in the test on HEK293 [15] it was 16.4 µM (active); with HEK293 [16], 10.8 µM (inactive). Also, the 50% inhibitory concentration (IC50) in test [17] was 14.3 µM (not active); on Tumor necrosis factor, 8.16 µM (active); in test [18] it was 5.04 µM (active). Further, the values for the half-maximal effective concentration (EC50) (in the test with HEK293 [19]; in [20]) were 7.46 µM (active) and 10.4 µM (active), respectively.
